Results on 28 molecules are retold here after patent US12612384B2, “Heterocyclic CYP4A inhibitor compounds and compositions thereof” (MBD CO., LTD., priority 2021, dated 2026).

Structures are written as SMILES. A value given as a limit tells only on which side of the number the result lay.

One assay concerns the target T1, CYP4A (Homo sapiens, UniProt Q02928).
T1 construct: purchased; host or cells: bacterial membranes ('bactosome')
T1 sequence (Q02928 5-519): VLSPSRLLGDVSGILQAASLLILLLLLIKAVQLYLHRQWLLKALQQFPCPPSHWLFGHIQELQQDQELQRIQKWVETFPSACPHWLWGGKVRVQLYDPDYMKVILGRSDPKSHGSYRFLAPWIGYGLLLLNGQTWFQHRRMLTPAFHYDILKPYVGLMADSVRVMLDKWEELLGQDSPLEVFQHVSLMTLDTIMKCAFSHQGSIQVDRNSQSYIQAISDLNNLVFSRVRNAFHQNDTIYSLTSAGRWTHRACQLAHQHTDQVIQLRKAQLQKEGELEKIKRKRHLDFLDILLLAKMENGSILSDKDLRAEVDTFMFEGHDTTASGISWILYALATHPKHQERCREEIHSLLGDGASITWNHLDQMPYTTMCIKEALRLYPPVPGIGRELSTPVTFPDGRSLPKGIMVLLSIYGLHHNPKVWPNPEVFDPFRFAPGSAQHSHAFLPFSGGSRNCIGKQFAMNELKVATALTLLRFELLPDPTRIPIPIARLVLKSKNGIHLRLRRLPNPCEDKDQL
Description: CYP4A enzyme assay (luminescence, Luciferin-ME). In kind it is biochemical. The settings on record: Compound concentration 5 μM; 50%-70%; read-out: % Inhibition 50%-70%. As for the experimental part: The CYP4A inhibitory activity of the above compounds of the examples was measured. The reagents used in the experiment were commercially available, and were prepared and used when necessary. The device used for measuring activity was SpectraMax of MOLECULAR DEVICES.
CYP4A bactosome and the compounds to be evaluated (5 μM) were each diluted in assay buffer (100 mM KPO4, 0.1% BSA, 1 mM DTT) and mixed in a 384 well plate (white opaque polystyrene nontreated flat-bottom well), and reaction was carried out at room temperature for 15 minutes. To induce CYP4A reaction, 5 mM Luciferin-ME, NADPH Regeneration system (10× sol. A, 20× sol. B in assay buffer, Cat. Number: V865B, Promega) were sequentially added and mixed, and the reaction was carried out at room temperature for 30 minutes. Then, Luciferin Detection reagent was added thereto and reacted at room temperature for 15 minutes to stop the CYP4A reaction and induce a luminescence reaction. Finally, after measuring the luminescence value using a microplate reader, the inhibition of CYP4A activity by the compounds was evaluated by comparing the luminescence value from each well.
One may read the inhibition as the change of the read-out against control, counted positive when it falls. As for `COc1ccc2c(N3CCN(C(=O)C4CCCN(C(=O)C5CCCCC5)C4)CC3)ccnc2c1` (stereo not shown) [Example 92, (4-(7-methoxyquinolin-4-yl)piperazin-1-yl)(1-(cyclohexylcarbonyl)piperidin-3-yl)methanone], the inhibition at 5 µM lay within 50 to 70%.
The same measure, in the same setting: the value for `COc1ccc2c(N3CCN(C(=O)C4CCCN(C(=O)c5ccccc5)C4)CC3)ccnc2c1` (stereo not shown) [Example 91, (1-benzoylpiperidin-3-yl)(4-(7-methoxyquinolin-4-yl)piperazin-1-yl)methanone] was 50 to 70%.
Still for that read-out and setting: under `O=C(C1CCCN(S(=O)(=O)CCCO)C1)N1CCN(c2ccnc3ccccc23)CC1` (stereo not shown) [Example 133, (1-((3-hydroxypropyl)sulfonyl)piperidin-3-yl)(4-(quinolin-4-yl)piperazin-1-yl)methanone] stands 50 to 70%.
Same read-out and setting: under `O=C(c1ccncc1)N1CCCC(C(=O)N2CCN(c3cc(C(F)(F)F)nc4ccccc34)CC2)C1` (stereo not shown) [Example 98, (1-isonicotinoylpiperidin-3-yl)(4-(2-(trifluoromethyl)quinolin-4-yl)piperazin-1-yl)methanone] stands 50 to 70%; under `O=C(C1CCCN(S(=O)(=O)C2CC2)C1)N1CCN(c2ccnc3cc(F)ccc23)CC1` (stereo not shown) [Example 119, (1-(cyclopropylsulfonyl)piperidin-3-yl)(4-(7-fluoroquinolin-4-yl)piperazin-1-yl)methanone], 50 to 70%.
Consider `CC(=O)Nc1ccc(S(=O)(=O)N2CCCC(C(=O)N3CCN(c4nc(C)nc5ccccc45)CC3)C2)cc1` (stereo not shown) [Example 79, N-(4-(3-(1-(2-methylquinazolin-4-yl)piperazine-4-carbonyl)piperidin-1-ylsulfonyl)phenyl)acetamide], for which the inhibition at 5 µM lay in the range of 50 to 70%.

Still in this assay, the particulars now being: Compound concentration 5 μM; 70%-90%; read-out: % Inhibition 70%-90%.
With `Cc1ccc(S(=O)(=O)N2CCC(C(=O)N3CCN(c4ccnc5ccccc45)CC3)C2)s1` (stereo not shown) [Example 37, (1-((5-methylthiophen-2-yl)sulfonyl)pyrrolidin-3-yl)(4-(quinolin-4-yl)piperazin-1-yl)methanone], the inhibition at 5 µM lay in the range of 70 to 90%.
Regarding `O=C(C1CCN(S(=O)(=O)c2cccs2)C1)N1CCN(c2ccnc3ccccc23)CC1` (stereo not shown) [Example 36, (4-(quinolin-4-yl)piperazin-1-yl)(1-(thiophen-2-ylsulfonyl)pyrrolidin-3-yl)methanone], the inhibition at 5 µM was 70 to 90%.
Same read-out and setting: under `Cc1nn(C)c(C)c1S(=O)(=O)N1CC[C@@H](C(=O)N2CCN(c3ccnc4ccccc34)CC2)C1` [Example 152, (R)-(4-(quinolin-4-yl)piperazin-1-yl)(1-((1,3,5-trimethyl-1H-pyrazol-4-yl)sulfonyl)pyrrolidin-3-yl)methanone] stands 70 to 90%.
With `O=C(C1CCN(S(=O)(=O)c2ccc(Br)cc2)C1)N1CCN(c2ccnc3cc(F)ccc23)CC1` (stereo not shown) [Example 16, (1-((4-bromophenyl)sulfonyl)pyrrolidin-3-yl)(4-(7-fluoroquinolin-4-yl)piperazin-1-yl)methanone], the inhibition at 5 µM was 70 to 90%.
Regarding `O=C(c1ccc(F)cc1)N1CCCC(C(=O)N2CCN(c3ccnc4cc(Cl)ccc34)CC2)C1` (stereo not shown) [Example 84, (4-(7-chloroquinolin-4-yl)piperazin-1-yl)(1-(4-fluorophenylcarbonyl)piperidin-3-yl)methanone], the inhibition at 5 µM is 70 to 90%.
Same read-out and setting: the value for `O=C(c1ccccc1)N1CCCC(C(=O)N2CCN(c3ccnc4cc(F)ccc34)CC2)C1` (stereo not shown) [Example 107, (1-benzoylpiperidin-3-yl)(4-(7-fluoroquinolin-4-yl)piperazin-1-yl)methanone] was 70 to 90%; that for `O=C(c1ccncc1)N1CCCC(C(=O)N2CCN(c3ccnc4cc(F)ccc34)CC2)C1` (stereo not shown) [Example 109, (4-(7-fluoroquinolin-4-yl)piperazin-1-yl)(1-isonicotinoylpiperidin-3-yl)methanone] was 70 to 90%; that for `O=C(C1CCN(S(=O)(=O)c2ccc(Br)cc2)C1)N1CCN(c2ccnc3ccccc23)CC1` (stereo not shown) [Example 31, (1-((4-bromophenyl)sulfonyl)pyrrolidin-3-yl)(4-(quinolin-4-yl)piperazin-1-yl)methanone] was 70 to 90%.
As for `O=C(C1CCN(S(=O)(=O)c2ccc(Br)cc2)CC1)N1CCN(c2ccnc3cc(F)ccc23)CC1` [Example 56, (1-((4-bromophenyl)sulfonyl)piperidin-4-yl)(4-(7-fluoroquinolin-4-yl)piperazin-1-yl)methanone], the inhibition at 5 µM was 70 to 90%.
Take `O=C(c1ccc(F)cc1)N1CCCC(C(=O)N2CCN(c3ccnc4ccccc34)CC2)C1` (stereo not shown) [Example 112, (1-(4-fluorophenylcarbonyl)piperidin-3-yl)(4-(quinolin-4-yl)piperazin-1-yl)methanone]: the inhibition at 5 µM lay in the range of 70 to 90%.
Turning to `Cn1cnc(S(=O)(=O)N2CC[C@H](C(=O)N3CCN(c4ccnc5cc(F)ccc45)CC3)C2)n1` [Example 139, (S)-(4-(7-fluoroquinolin-4-yl)piperazin-1-yl)(1-((1-methyl-1H-1,2,4-triazol-3-yl)sulfonyl)pyrrolidin-3-yl)methanone], the inhibition at 5 µM lay within 70 to 90%.

The same assay, now with this note: Compound concentration 5 μM; Greater than 90%; read-out: % Inhibition Greater than 90%.
In the case of `Cn1ccnc1S(=O)(=O)N1CC[C@H](C(=O)N2CCN(c3ccnc4cc(F)ccc34)CC2)C1` [Example 7, (S)-(4-(7-fluoroquinolin-4-yl)piperazin-1-yl)(1-((1-methyl-1H-imidazol-2-yl)sulfonyl)pyrrolidin-3-yl)methanone], the inhibition at 5 µM was above 90%.
As to `CC(=O)Nc1ccc(S(=O)(=O)N2CCCC(C(=O)N3CCN(c4ccnc5cc(F)ccc45)CC3)C2)cn1` (stereo not shown) [Example 60, N-(5-((3-(4-(7-fluoroquinolin-4-yl)piperazine-1-carbonyl)piperidin-1-yl)sulfonyl)pyridin-2-yl)acetamide], the inhibition at 5 µM was above 90%.
Same read-out and setting: the value for `CC(=O)Nc1ccc(S(=O)(=O)N2CC[C@@H](C(=O)N3CCN(c4ccnc5ccccc45)CC3)C2)cc1` [Example 22, (R)—N-(4-((3-(4-(quinolin-4-yl)piperazine-1-carbonyl)pyrrolidin-1-yl)sulfonyl)phenyl)acetamide] was above 90%; that for `O=C(C1CCN(S(=O)(=O)c2ccc(-c3ccncc3)nc2)C1)N1CCN(c2ccnc3ccccc23)CC1` (stereo not shown) [Example 26, (1-([2,4′-bipyridin]-5-ylsulfonyl)pyrrolidin-3-yl)(4-(quinolin-4-yl)piperazin-1-yl)methanone] was above 90%; that for `CC(C)(C)c1n[nH]c(S(=O)(=O)N2CCC(C(=O)N3CCN(c4ccnc5cc(F)ccc45)CC3)C2)n1` (stereo not shown) [Example 20, (1-((5-(tert-butyl)-4H-1,2,4-triazol-3-yl)sulfonyl)pyrrolidin-3-yl)(4-(7-fluoroquinolin-4-yl)piperazin-1-yl)methanone] was above 90%.
As for `Cn1cnc(S(=O)(=O)N2CCC(C(=O)N3CCN(c4ccnc5ccccc45)CC3)C2)c1` (stereo not shown) [Example 46, (1-((1-methyl-1H-imidazol-4-yl)sulfonyl)pyrrolidin-3-yl)(4-(quinolin-4-yl)piperazin-1-yl)methanone], the inhibition at 5 µM was above 90%.
With `CC(=O)Nc1ccc(S(=O)(=O)N2CC[C@H](C(=O)N3CCN(c4ccnc5ccccc45)CC3)C2)cc1` [Example 23, (S)—N-(4-((3-(4-(quinolin-4-yl)piperazine-1-carbonyl)pyrrolidin-1-yl)sulfonyl)phenyl)acetamide], the inhibition at 5 µM is above 90%.
For the molecule `O=C([C@H]1CCN(S(=O)(=O)c2nccn2CCO)C1)N1CCN(c2ccnc3ccc(F)cc23)CC1` [Example 160, (S)-(4-(6-fluoroquinolin-4-yl)piperazin-1-yl)(1-((1-(2-hydroxyethyl)-1H-imidazol-2-yl)sulfonyl)pyrrolidin-3-yl)methanone], the inhibition at 5 µM is above 90%.
The same measure, in the same setting: the value for `O=C(C1CCN(S(=O)(=O)c2ccc(-c3cccnc3)nc2)C1)N1CCN(c2ccnc3ccccc23)CC1` (stereo not shown) [Example 29, (1-([2,3′-bipyridin]-5-ylsulfonyl)pyrrolidin-3-yl)(4-(quinolin-4-yl)piperazin-1-yl)methanone] was above 90%; that for `Cc1n[nH]c(C)c1S(=O)(=O)N1CCC(C(=O)N2CCN(c3ccnc4ccccc34)CC2)C1` (stereo not shown) [Example 45, (1-((3,5-dimethyl-1H-pyrazol-4-yl)sulfonyl)pyrrolidin-3-yl)(4-(quinolin-4-yl)piperazin-1-yl)methanone] was above 90%; that for `O=C(C1CCN(S(=O)(=O)c2ccc([N+](=O)[O-])cc2)C1)N1CCN(c2ccnc3cc(F)ccc23)CC1` (stereo not shown) [Example 8, (4-(7-fluoroquinolin-4-yl)piperazin-1-yl)(1-((4-nitrophenyl)sulfonyl)pyrrolidin-3-yl)methanone] was above 90%.
